Data from US6713436B1, “1-cycloalkylpyrazolyl-benzoyl derivatives” (BASF Aktiengesellschaft, priority 1999, dated 2004).

What was measured:
Chenopodium album = assay: greenhouse post-emergence herbicidal test; type: in vivo; details: Chenopodium album (lamb's-quarters), application rates of 0.5 or 0.25 kg/ha
Excerpt: (§1) The seeds of the test plants were sown separately for each species. For the post-emergence treatment, the test plants were first grown to a height of 3 to 15 cm, depending on the plant habit, and only then treated with the active compounds which had been suspended or emulsified in water. The test plants were for this purpose either sown directly and grown in the same containers, or they were first grown separately as seedlings and transplanted into the test containers a few days prior to treatment. The application rate for the post-emergence treatment was 0.5 or 0.25 kg of a.s. (active substance)/ha. Depending on the species, the plants were kept at 10-25° C. or 20-35° C. The test period extended over 2 to 4 weeks. During this time, the plants were tended, and their response to the individual treatments was evaluated. The evaluation was carried out using a scale from 0 to 100. 100 means no emergence of the plants, or complete destruction of at least the aerial parts and 0 means no damage, or normal course of growth. The plants used in the greenhouse experiments were of the following species: [table]

Brachiaria plantaginea = assay: greenhouse post-emergence herbicidal test; type: in vivo; details: Brachiaria plantaginea (alexander grass), application rates of 0.5 or 0.25 kg/ha
Excerpt: as §1

Echinochloa crus-galli = assay: greenhouse post-emergence herbicidal test; type: in vivo; details: Echinochloa crus-galli (barnyard grass), application rates of 0.5 or 0.25 kg/ha
Excerpt: as §1

Polygonum persicaria = assay: greenhouse post-emergence herbicidal test; type: in vivo; details: Polygonum persicaria (lady's-thumb), application rates of 0.5 or 0.25 kg/ha
Excerpt: as §1

Cc1c(C(=O)c2cnn(C3CCCC3)c2O)ccc(S(C)(=O)=O)c1C1=NOCC1 [compound 4.6, 4-[2-Methyl-3-(4,5-dihydroisoxazol-3-yl)-4-methylsulfonylbenzoyl]-1-cyclopentyl-5-hydroxy-1H-pyrazole]
post-emergence action (Chenopodium album): very good | post-emergence action (Brachiaria plantaginea): very good | post-emergence action (Echinochloa crus-galli): very good | post-emergence action (Polygonum persicaria): very good | melting point: 135 to 140 °C
